Earlier results in patent US5321127A, “Antiplatelet and antithrombotic activity of platelet glycoprotein Ib receptor fragments” (priority 1991, dated 1994).

Tested on: vWF binding to platelets
Conditions: literature

In the case of “synthetic peptide spanning amino acid residues aspartate235 to lysine262: GpIbα synthetic peptide reported by Katagiri et al. (DVKAMTSNVASVQCDNSDKFPVYKYPGK; UniProt P07359 251-278, looked up, fragment)”, the “Inhibition of ristocetin-dependent binding of vWF to platelets” value is given as “inhibited”.
